In brackets after ≈: the same amount, converted by molar mass. Where a SMILES comes first, the peptide text is derived from it. [ ]: non-standard residue; d: D form. The star is where a group is joined. Arachidoyl = CCCCCCCCCCCCCCCCCCCC(=O)*; Undecanoyl = CCCCCCCCCCC(=O)*; Nlys = NCCCCNCC(=O)O
Tests used:
[1] = test system: S. maltophilia CAN-ICU 62584; assay type: cell-based, Stenotrophomonas maltophilia; details: CAN-ICU 62584, 24 h
Procedure: (§1) Antimicrobial activity of the purified lipopeptoids was determined without replication against a panel of clinically relevant and standard reference bacterial strains according to CLSI macrobroth standards. Stock solutions at 512 µg/mL were prepared in water, with DMSO as needed, and testing was performed in glass test tubes using Muller-Hinton broth and bacteria adjusted to 5 × 10^5 CFU/mL. Bacteria were incubated with the lipopeptoid of interest for 24 hr at 37°C prior to reading.
(§2) The bacteria Staphylococcus aureus ATCC 29213, methicillin-resistant S. aureus ATCC 33592, Staphylococcus epidermidis ATCC 14990, Enterococcus faecalis ATCC 29212, E. faecium ATCC 27270, Streptococcus pneumoniae ATCC 49619, Escherichia coli ATCC 25922, Pseudomonas aeruginosa ATCC 27853, and Klebsiella pneumoniae ATCC 13883 were acquired from the American Type Culture Collection (ATCC) and used as quality controls. The clinical strains methicillin-resistant S. epidermidis (MRSE) CAN-ICU 61589, E. coli CAN-ICU 61714, E. coli CAN-ICU 63074, P. aeruginosa CAN-ICU 62308, Stenotrophomonas maltophilia CAN-ICU 62584, Acinetobacter baumannii CAN-ICU 63169 were obtained from hospitals across Canada as part of the CAN-ICU studies, while methicillin-susceptible S. epidermidis (MSSE) 81388 was obtained from the 2008 CANWARD study.
(§3) After subculturing the relevant bacteria twice from frozen stock, in vitro activities of the antimicrobials were determined by macrobroth dilution methodology in accordance with the Clinical and Laboratory Standards Institute (CLSI) guidelines (3). The MICs were determined using glass test tubes (2 mL/tube) containing doubling antimicrobial dilutions of cation adjusted Mueller-Hinton broth inoculated to achieve a final concentration of approximately 5 x 10^5 CFU/mL, incubated in ambient air for 24 hr prior to reading. Colony counts were performed periodically to confirm inocula. The ATCC organisms […] ATCC 49619, Staphylococcus aureus ATCC 29213, Enterococcus faecalis ATCC 29212, Escherichia coli ATCC 25922, and Pseudomonas aeruginosa ATCC 27853 were used as quality control and to allow easy comparison to previously tested antimicrobials. Each test in this series was performed without replication. In our experience with cationic amphiphiles the results are accurate to within a single doubling.

E. faecalis ATCC 29212 = assay type: cell-based, Enterococcus faecalis; details: ATCC 29212, 24 h
Procedure: as §1, §2, §3

E.coli CAN-ICU 63074 = assay type: cell-based, Escherichia coli; details: CAN-ICU 63074, 24 h
Procedure: as §1, §2, §3

E.coli ATCC 25922 = assay type: cell-based, Escherichia coli; details: ATCC 25922, 24 h
Procedure: as §1, §2, §3

E.coli CAN-ICU 61714 = assay type: cell-based, Escherichia coli; details: CAN-ICU 61714, 24 h
Procedure: as §1, §2, §3

MSSE 81388 CANWARD 2008 = assay type: cell-based, methicillin-susceptible S. epidermidis; details: 24 h
Procedure: as §1, §2, §3

[2] = test system: panel of clinically relevant and laboratory reference bacteria; test: Antimicrobial activity over the whole bacterial panel; assay type: cell-based; details: Gram positive and Gram negative strains, no BSA
Procedure: as §1, with “reading. […]” for “reading.”
After subculturing the relevant bacteria twice from frozen stock, in vitro activities of the antimicrobials were determined by macrobroth dilution methodology in accordance with the Clinical and Laboratory Standards Institute (CLSI) guidelines (3). The MICs were determined using glass test tubes (2 mL/tube) containing doubling antimicrobial dilutions of cation adjusted Mueller-Hinton broth inoculated to achieve a final concentration of approximately 5 x 10^5 CFU/mL, incubated in ambient air for 24 hr prior to reading. […]

[3] = test system: A. baumannii CAN-ICU 63169; assay type: cell-based, Acinetobacter baumannii; details: CAN-ICU 63169, 24 h
Procedure: as §1, §2, §3

S.aureus ATCC 29213 = assay type: cell-based, Staphylococcus aureus; details: ATCC 29213, 24 h
Procedure: as §1, §2, §3

K.pneumoniae ATCC 13883 = assay type: cell-based, Klebsiella pneumoniae; details: ATCC 13883, 24 h
Procedure: as §1, §2, §3

ovine erythrocytes = test: Haemolytic assay; assay type: cell-based, sheep; details: ovine erythrocytes in Tris buffered saline, 30 minutes, absorbance of supernatant at 540 nm
Procedure: Mammalian cell toxicity was determined by measuring lysis of ovine erythrocytes, a standard model for human cell toxicity. Cells were prewashed with Tris buffered saline and then incubated with a variety of lipopeptoid concentrations for 30 minutes. Following centrifugation, lysis was evaluated by testing the absorbance of the solution at 540 nm, with 0.5% NH4OH used as a positive control.
Toxicity to mammalian cells was determined using a sheep red blood cell (erythrocyte) haemolytic assay (4). Erythrocytes were washed and resuspended in Tris buffered saline prior to use, at a concentration of 1.46 - 4.5 x 10^9 cells/mL (on average 3.08 x 10^9 cells/mL). The cell suspension was diluted with varying concentrations of antimicrobials, from 50 μg/mL to 1 mg/mL and incubated for thirty minutes (final erythrocyte concentration 4.08 x 10^8 cells/mL). The samples were centrifuged following treatment and the absorbance of the supernatant was measured at 540 nm. A solution of 0.5% […] was used as a positive control, with normal buffered solution as the negative control. The toxicity was assessed as a function of percent haemolysis.

S.pneumoniae ATCC 49619 = assay type: cell-based, Streptococcus pneumoniae; details: ATCC 49619, 24 h
Procedure: as §1, §2, §3

MRSA ATCC 33592 = assay type: cell-based, methicillin-resistant S. aureus; details: ATCC 33592, 24 h
Procedure: as §1, §2, §3

P.aeruginosa ATCC 27853 = assay type: cell-based, Pseudomonas aeruginosa; details: ATCC 27853, 24 h
Procedure: as §1, §2, §3

[4] = test system: P.aeruginosa CAN-ICU 62308; assay type: cell-based, Pseudomonas aeruginosa; details: CAN-ICU 62308, 24 h
Procedure: as §1, §2, §3

MRSE CAN-ICU 61589 = assay type: cell-based, methicillin-resistant S. epidermidis; details: CAN-ICU 61589, 24 h
Procedure: as §1, §2, §3

E. faecium ATCC 27270 = assay type: cell-based; details: ATCC 27270, 24 h
Procedure: as §1, §2, §3

SMILES	MIC S. maltophilia [1] [µg/mL]	MIC S. maltophilia in the presence of 4% bovine serum albumin [1] [µg/mL]	MIC E. faecalis (E. faecalis ATCC 29212) [µg/mL]	MIC E. faecalis in the presence of 4% bovine serum albumin (E. faecalis ATCC 29212) [µg/mL]	MIC E.coli (E.coli CAN-ICU 63074) [µg/mL]	MIC E.coli in the presence of 4% bovine serum albumin (E.coli CAN-ICU 63074) [µg/mL]	MIC E.coli (E.coli ATCC 25922) [µg/mL]	MIC E.coli in the presence of 4% bovine serum albumin (E.coli ATCC 25922) [µg/mL]	MIC E.coli (E.coli CAN-ICU 61714) [µg/mL]	MIC E.coli in the presence of 4% bovine serum albumin (E.coli CAN-ICU 61714) [µg/mL]	MIC MSSE (MSSE 81388 CANWARD 2008) [µg/mL]	MIC MSSE in the presence of 4% bovine serum albumin (MSSE 81388 CANWARD 2008) [µg/mL]	MIC A. baumannii [3] [µg/mL]	MIC A. baumannii in the presence of 4% bovine serum albumin [3] [µg/mL]	MIC S.aureus (S.aureus ATCC 29213) [µg/mL]	MIC S.aureus in the presence of 4% bovine serum albumin (S.aureus ATCC 29213) [µg/mL]	MIC K.pneumoniae (K.pneumoniae ATCC 13883) [µg/mL]	MIC K.pneumoniae in the presence of 4% bovine serum albumin (K.pneumoniae ATCC 13883) [µg/mL]	Percent haemolysis at 100µg/mL of compound (ovine erythrocytes) [%]	MIC S.pneumoniae (S.pneumoniae ATCC 49619) [µg/mL]	further results
CCCCCCCCCCC(=O)N(CCCCN)CC(=O)NCC(=O)N(CCCCN)CC(N)=O [C11-NlysGNlys] (Undecanoyl-[Nlys]-Gly-[Nlys]-NH2)	>512	>512	512 (≈ 1030 µM)	>512	>512	>512	>512	>512	>512	>512	256 (≈ 513 µM)	512	>512	>512	512 (≈ 1030 µM)	>512	>512	>512	1.34	512 (≈ 1030 µM)	Antimicrobial activity over the panel (in words) [2]: broadly inactive; MIC S.pneumoniae in the presence of 4% bovine serum albumin (S.pneumoniae ATCC 49619): 512 µg/mL; MIC MRSA (MRSA ATCC 33592): 512 µg/mL (≈ 1030 µM); MIC MRSA in the presence of 4% bovine serum albumin (MRSA ATCC 33592): >512 µg/mL; MIC P.aeruginosa (P.aeruginosa ATCC 27853): >512 µg/mL; MIC P.aeruginosa in the presence of 4% bovine serum albumin (P.aeruginosa ATCC 27853): >512 µg/mL; MIC P.aeruginosa [4]: >512 µg/mL; MIC P.aeruginosa in the presence of 4% bovine serum albumin [4]: >512 µg/mL; MIC MRSE (MRSE CAN-ICU 61589): 256 µg/mL (≈ 513 µM); MIC MRSE in the presence of 4% bovine serum albumin (MRSE CAN-ICU 61589): 512 µg/mL; MIC E. faecium (E. faecium ATCC 27270): 512 µg/mL (≈ 1030 µM); MIC E. faecium in the presence of 4% bovine serum albumin (E. faecium ATCC 27270): >512 µg/mL
CCCCCCCCCCC(=O)N(CCCCN)CC(=O)N(CCCCN)CC(=O)N(CCCCN)CC(N)=O [C11-NlysNlysNlys]	>512	>512	512 (≈ 899 µM)	>512	>512	>512	>512	>512	>512	>512	512 (≈ 899 µM)	512	>512	>512	512 (≈ 899 µM)	>512	>512	>512	0.67	>512	Antimicrobial activity over the panel (in words) [2]: broadly inactive; MIC S.pneumoniae in the presence of 4% bovine serum albumin (S.pneumoniae ATCC 49619): >512 µg/mL; MIC MRSA (MRSA ATCC 33592): 512 µg/mL (≈ 899 µM); MIC MRSA in the presence of 4% bovine serum albumin (MRSA ATCC 33592): >512 µg/mL; MIC P.aeruginosa (P.aeruginosa ATCC 27853): >512 µg/mL; MIC P.aeruginosa in the presence of 4% bovine serum albumin (P.aeruginosa ATCC 27853): >512 µg/mL; MIC P.aeruginosa [4]: >512 µg/mL; MIC P.aeruginosa in the presence of 4% bovine serum albumin [4]: >512 µg/mL; MIC MRSE (MRSE CAN-ICU 61589): 512 µg/mL (≈ 899 µM); MIC MRSE in the presence of 4% bovine serum albumin (MRSE CAN-ICU 61589): 512 µg/mL; MIC E. faecium (E. faecium ATCC 27270): 256 µg/mL (≈ 449 µM); MIC E. faecium in the presence of 4% bovine serum albumin (E. faecium ATCC 27270): 512 µg/mL
CCCCCCCCCCCCCCCCCCCC(=O)N(CCCCNC(=N)N)CC(=O)NCC(=O)N(CCCCNC(=N)N)CC(N)=O [C20-NhargGNharg]	256 (≈ 361 µM)	>512	16 (≈ 22.6 µM)	512	256 (≈ 361 µM)	512	256 (≈ 361 µM)	512	256 (≈ 361 µM)	>512	8 (≈ 11.3 µM)	256	128 (≈ 181 µM)	>512	16 (≈ 22.6 µM)	512	128 (≈ 181 µM)	512	71.87	256 (≈ 361 µM)	MIC S.pneumoniae in the presence of 4% bovine serum albumin (S.pneumoniae ATCC 49619): 64 µg/mL; MIC MRSA (MRSA ATCC 33592): 16 µg/mL (≈ 22.6 µM); MIC MRSA in the presence of 4% bovine serum albumin (MRSA ATCC 33592): 512 µg/mL; MIC P.aeruginosa (P.aeruginosa ATCC 27853): 512 µg/mL (≈ 722 µM); MIC P.aeruginosa in the presence of 4% bovine serum albumin (P.aeruginosa ATCC 27853): >512 µg/mL; MIC P.aeruginosa [4]: 256 µg/mL (≈ 361 µM); MIC P.aeruginosa in the presence of 4% bovine serum albumin [4]: >512 µg/mL; MIC MRSE (MRSE CAN-ICU 61589): 8 µg/mL (≈ 11.3 µM); MIC MRSE in the presence of 4% bovine serum albumin (MRSE CAN-ICU 61589): 256 µg/mL; MIC E. faecium (E. faecium ATCC 27270): 16 µg/mL (≈ 22.6 µM); MIC E. faecium in the presence of 4% bovine serum albumin (E. faecium ATCC 27270): 256 µg/mL
CCCCCCCCCCCCCCCCCCCC(=O)N(CCCCN)CC(=O)NCC(=O)N(CCCCN)CC(N)=O [C20-NlysGNlys] (Arachidoyl-[Nlys]-Gly-[Nlys]-NH2)	128 (≈ 205 µM)	>512	16 (≈ 25.6 µM)	512	128 (≈ 205 µM)	>512	256 (≈ 410 µM)	>512	256 (≈ 410 µM)	>512	8 (≈ 12.8 µM)	256	128 (≈ 205 µM)	>512	8 (≈ 12.8 µM)	512	128 (≈ 205 µM)	>512	33.51	128 (≈ 205 µM)	MIC S.pneumoniae in the presence of 4% bovine serum albumin (S.pneumoniae ATCC 49619): 512 µg/mL; MIC MRSA (MRSA ATCC 33592): 16 µg/mL (≈ 25.6 µM); MIC MRSA in the presence of 4% bovine serum albumin (MRSA ATCC 33592): 512 µg/mL; MIC P.aeruginosa (P.aeruginosa ATCC 27853): 256 µg/mL (≈ 410 µM); MIC P.aeruginosa in the presence of 4% bovine serum albumin (P.aeruginosa ATCC 27853): >512 µg/mL; MIC P.aeruginosa [4]: 256 µg/mL (≈ 410 µM); MIC P.aeruginosa in the presence of 4% bovine serum albumin [4]: >512 µg/mL; MIC MRSE (MRSE CAN-ICU 61589): 8 µg/mL (≈ 12.8 µM); MIC MRSE in the presence of 4% bovine serum albumin (MRSE CAN-ICU 61589): 512 µg/mL; MIC E. faecium (E. faecium ATCC 27270): 16 µg/mL (≈ 25.6 µM); MIC E. faecium in the presence of 4% bovine serum albumin (E. faecium ATCC 27270): 512 µg/mL
